# According to patent US10370366B2 (Flatley Discovery Lab, LLC, priority 2013, dated 2019):
# Target: T1, human F508del CFTR (Homo sapiens, UniProt P13569, DEL508-508)
# T1 construct: expressed in transfected cells; host or cells: Fisher Rat Thyroid (FRT) cells
# Test: CFTR-YFP High Throughput Assay
# Format: cell-based
# Conditions: FRT cells expressing human F508del CFTR and YFP; for Emax: EMax normalized to the positive control, read-out: % Efficacy
# Summary of the method: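 FRT cells stably co-expressing human F508del CFTR and halide-sensitive YFP-H148Q/I152L; for correction, compound (2 nM-40 μM) incubated 24-26 h at 37° C, washed, then stimulated 60-120 min at RT with 20 μM forskolin plus 30 μM potentiator P3. Iodide-induced YFP quench (Ex 500/Em 540 nm) recorded; quench rates least-squares fitted.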
# T1 sequence (P13569 with tags, fused parts or gaps DEL508-508): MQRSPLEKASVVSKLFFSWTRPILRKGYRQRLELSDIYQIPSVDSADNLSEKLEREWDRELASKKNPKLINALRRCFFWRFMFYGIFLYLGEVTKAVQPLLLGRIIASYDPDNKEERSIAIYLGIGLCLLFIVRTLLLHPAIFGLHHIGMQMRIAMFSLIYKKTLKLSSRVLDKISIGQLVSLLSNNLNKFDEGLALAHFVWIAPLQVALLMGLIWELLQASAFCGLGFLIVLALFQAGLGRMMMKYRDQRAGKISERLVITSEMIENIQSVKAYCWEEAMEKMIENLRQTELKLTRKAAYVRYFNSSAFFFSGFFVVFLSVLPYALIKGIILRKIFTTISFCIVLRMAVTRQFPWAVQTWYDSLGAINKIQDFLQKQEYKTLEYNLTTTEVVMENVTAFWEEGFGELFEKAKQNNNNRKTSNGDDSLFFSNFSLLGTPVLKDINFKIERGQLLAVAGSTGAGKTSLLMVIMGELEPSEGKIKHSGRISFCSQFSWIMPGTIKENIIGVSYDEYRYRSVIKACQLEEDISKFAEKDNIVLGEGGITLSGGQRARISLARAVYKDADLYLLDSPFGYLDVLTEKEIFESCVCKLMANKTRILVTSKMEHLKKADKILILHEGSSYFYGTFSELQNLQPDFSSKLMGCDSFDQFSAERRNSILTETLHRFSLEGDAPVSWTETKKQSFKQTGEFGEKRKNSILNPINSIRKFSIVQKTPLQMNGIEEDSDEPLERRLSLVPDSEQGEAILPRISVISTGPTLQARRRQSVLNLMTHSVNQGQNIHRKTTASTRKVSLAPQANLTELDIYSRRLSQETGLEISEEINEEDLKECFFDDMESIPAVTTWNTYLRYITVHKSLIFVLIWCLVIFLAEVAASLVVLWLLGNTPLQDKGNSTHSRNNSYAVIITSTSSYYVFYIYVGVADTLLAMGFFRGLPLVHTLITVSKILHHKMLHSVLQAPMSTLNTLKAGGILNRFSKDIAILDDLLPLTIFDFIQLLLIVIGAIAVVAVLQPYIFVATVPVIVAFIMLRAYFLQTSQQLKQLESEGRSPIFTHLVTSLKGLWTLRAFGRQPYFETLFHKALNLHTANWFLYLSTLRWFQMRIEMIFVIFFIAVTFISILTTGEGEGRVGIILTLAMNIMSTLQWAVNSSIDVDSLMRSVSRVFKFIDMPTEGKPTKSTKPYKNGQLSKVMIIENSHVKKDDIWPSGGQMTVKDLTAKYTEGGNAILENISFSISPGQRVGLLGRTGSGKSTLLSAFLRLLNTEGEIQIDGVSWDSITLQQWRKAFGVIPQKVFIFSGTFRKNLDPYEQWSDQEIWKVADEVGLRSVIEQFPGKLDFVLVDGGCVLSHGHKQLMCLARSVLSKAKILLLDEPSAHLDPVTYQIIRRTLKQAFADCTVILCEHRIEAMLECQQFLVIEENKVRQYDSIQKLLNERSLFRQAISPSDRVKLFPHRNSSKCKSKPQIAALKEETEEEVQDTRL
Emax [%],EC50 [µM],SMILES
30 to 80,–,"Cc1ccc(-n2nc(C(=O)N(CC(=O)O)c3ccccc3)c3c4ccccc4n(C)c3c2=O)cc1 [Example 163, 2-(5-methyl-4-oxo-N-phenyl-3-(p-tolyl)-4,5-dihydro-3H-pyridazino[4,5-b]indole-1-carboxamido)acetic acid]"
30 to 80,–,"CCN(C(=O)c1nn(-c2ccccc2)c(=O)c2c1c1ccccc1n2C)c1ncnc2c1cnn2C [Example 164, N-ethyl-5-methyl-N-(1-methyl-1H-pyrazolo[3,4-d]pyrimidin-4-yl)-4-oxo-3-phenyl-4,5-dihydro-3H-pyridazino[4,5-b]indole-1-carboxamide]"
30 to 80,< 10,"CCN(C(=O)c1nn(-c2ccc(C)cc2)c(=O)c2c1c1cc(Cl)ccc1n2C)c1ccccc1 [Example 165, 8-chloro-N-ethyl-5-methyl-4-oxo-N-phenyl-3-(p-tolyl)-4,5-dihydro-3H-pyridazino[4,5-b]indole-1-carboxamide]"
30 to 80,< 10,"CCN(C(=O)c1nn(-c2ccc(C)cc2)c(=O)c2c1c1ccc(Cl)cc1n2C)c1ccccc1 [Example 166, 7-chloro-N-ethyl-5-methyl-4-oxo-N-phenyl-3-(p-tolyl)-4,5-dihydro-3H-pyridazino[4,5-b]indole-1-carboxamide]"
30 to 80,–,"CCN(C(=O)c1nn(-c2ccccn2)c(=O)c2c1c1ccccc1n2C)c1ccccc1 [Example 167, N-ethyl-5-methyl-4-oxo-N-phenyl-3-(pyridin-2-yl)-4,5-dihydro-3H-pyridazino[4,5-b]indole-1-carboxamide]"
30 to 80,–,CCN(C(=O)c1nn(-c2cccnc2)c(=O)c2c1c1ccccc1n2C)c1ccccc1 [Example 168]
30 to 80,–,"CCN(C(=O)c1nn(-c2ccncc2)c(=O)c2c1c1ccccc1n2C)c1ccccc1 [Example 169, N-ethyl-5-methyl-4-oxo-N-phenyl-3-(pyridin-4-yl)-4,5-dihydro-3H-pyridazino[4,5-b]indole-1-carboxamide]"
30 to 80,–,"CCN(C(=O)c1nn(-c2nccs2)c(=O)c2c1c1ccccc1n2C)c1ccccc1 [Example 170, N-ethyl-5-methyl-4-oxo-N-phenyl-3-(thiazol-2-yl)-4,5-dihydro-3H-pyridazino[4,5-b]indole-1-carboxamide]"
10 to 30,> 20,"CCN(C(=O)c1nn(-c2ncccn2)c(=O)c2c1c1ccccc1n2C)c1ccccc1 [Example 171, N-ethyl-5-methyl-4-oxo-N-phenyl-3-(pyrimidin-2-yl)-4,5-dihydro-3H-pyridazino[4,5-b]indole-1-carboxamide]"
10 to 30,–,"CCN(C(=O)c1nn(-c2nc3ccccc3s2)c(=O)c2c1c1ccccc1n2C)c1ccccc1 [Example 172, 3-(benzo[d]thiazol-2-yl)-N-ethyl-5-methyl-4-oxo-N-phenyl-4,5-dihydro-3H-pyridazino[4,5-b]indole-1-carboxamide]"
10 to 30,–,"CCN(C(=O)c1nn(-c2nc3ccccc3n2C)c(=O)c2c1c1ccccc1n2C)c1ccccc1 [Example 173, N-ethyl-5-methyl-3-(1-methyl-1H-benzo[d]imidazol-2-yl)-4-oxo-N-phenyl-4,5-dihydro-3H-pyridazino[4,5-b]indole-1-carboxamide]"
30 to 80,–,"CCN(C(=O)c1nn(-c2ccccc2F)c(=O)c2c1c1ccccc1n2C)c1ccccc1 [Example 174, N-ethyl-3-(2-fluorophenyl)-5-methyl-4-oxo-N-phenyl-4,5-dihydro-3H-pyridazino[4,5-b]indole-1-carboxamide]"
30 to 80,> 20,"CCN(C(=O)c1nn(-c2ccccc2)c(=O)c2c1c1ccccc1n2C)c1cccc(F)c1 [Example 175, N-ethyl-N-(3-fluorophenyl)-5-methyl-4-oxo-3-phenyl-4,5-dihydro-3H-pyridazino[4,5-b]indole-1-carboxamide]"
30 to 80,–,"CCN(C(=O)c1nn(-c2cnc3ccccc3c2)c(=O)c2c1c1ccccc1n2C)c1ccccc1 [Example 177, N-ethyl-5-methyl-4-oxo-N-phenyl-3-(quinolin-3-yl)-4,5-dihydro-3H-pyridazino[4,5-b]indole-1-carboxamide]"
30 to 80,–,"CCN(C(=O)c1nn(-c2ccc(Cl)cc2)c(=O)c2c1c1ccccc1n2C)c1ccccc1 [Example 178, 3-(4-chlorophenyl)-N-ethyl-5-methyl-4-oxo-N-phenyl-4,5-dihydro-3H-pyridazino[4,5-b]indole-1-carboxamide]"
30 to 80,> 20,"CCN(C(=O)c1nn(-c2ccc(OC)cc2)c(=O)c2c1c1ccccc1n2C)c1ccccc1 [Example 179, N-ethyl-3-(4-methoxyphenyl)-5-methyl-4-oxo-N-phenyl-4,5-dihydro-3H-pyridazino[4,5-b]indole-1-carboxamide]"

Emax [%],EC50 [µM],SMILES
10 to 30,–,"CCN(C(=O)c1nn(-c2ccc(C)cn2)c(=O)c2c1c1ccccc1n2C)c1ccccc1 [Example 180, N-ethyl-5-methyl-3-(5-methylpyridin-2-yl)-4-oxo-N-phenyl-4,5-dihydro-3H-pyridazino[4,5-b]indole-1-carboxamide]"
30 to 80,–,"CCN(C(=O)c1nn(-c2ccccc2)c(=O)c2c1c1ccccc1n2C)c1cccc(Cl)c1 [Example 181, N-(3-chlorophenyl)-N-ethyl-5-methyl-4-oxo-3-phenyl-4,5-dihydro-3H-pyridazino[4,5-b]indole-1-carboxamide]"
30 to 80,–,"CCN(C(=O)c1nn(-c2ccc(C)cc2)c(=O)c2c1c1ccccc1n2C)c1ccc2c(c1)OC(F)(F)O2 [Example 182, N-(2,2-difluorobenzo[d][1, 3]dioxol-5-yl)-N-ethyl-5-methyl-4-oxo-3-(p-tolyl)-4,5-dihydro-3H-pyridazino[4,5-b]indole-1-carboxamide]"
30 to 80,–,"CCN(C(=O)c1nn(-c2ccc(C)cc2)c(=O)c2c1c1ccccc1n2C)c1cc(Cl)ccc1C(=O)O [Example 183, 4-chloro-2-(N-ethyl-5-methyl-4-oxo-3-(p-tolyl)-4,5-dihydro-3H-pyridazino[4,5-b]indole-1-carboxamido)benzoic acid]"
30 to 80,> 20,"Cc1ccc(-n2nc(C(=O)Nc3cc(Cl)ccc3C(=O)O)c3c4ccccc4n(C)c3c2=O)cc1 [Example 184, 4-chloro-2-(5-methyl-4-oxo-3-(p-tolyl)-4,5-dihydro-3H-pyridazino[4,5-b]indole-1-carboxamido)benzoic acid]"
30 to 80,< 10,"CCN(C(=O)c1nn(C2CCOCC2)c(=O)c2c1c1ccccc1n2C)c1ccccc1 [Example 185, N-ethyl-5-methyl-4-oxo-N-phenyl-3-(tetrahydro-2H-pyran-4-yl)-4,5-dihydro-3H-pyridazino[4,5-b]indole-1-carboxamide]"
10 to 30,< 10,"CC(C)N(C(=O)c1nn(-c2ccccn2)c(=O)c2c1c1ccccc1n2C)c1ccccc1 [Example 186, N-isopropyl-5-methyl-4-oxo-N-phenyl-3-(pyridin-2-yl)-4,5-dihydro-3H-pyridazino[4,5-b]indole-1-carboxamide]"
30 to 80,> 20,"CCN(C(=O)c1nn(-c2ccc(C)cc2)c(=O)c2c1c1cc(OC)ccc1n2C)c1ccccc1 [Example 187, N-ethyl-8-methoxy-5-methyl-4-oxo-N-phenyl-3-(p-tolyl)-4,5-dihydro-3H-pyridazino[4,5-b]indole-1-carboxamide]"
30 to 80,> 20,"CCN(C(=O)c1nn(-c2ccc(C)cc2)c(=O)c2c1c1ccc(OC)cc1n2C)c1ccccc1 [Example 188, N-ethyl-7-methoxy-5-methyl-4-oxo-N-phenyl-3-(p-tolyl)-4,5-dihydro-3H-pyridazino[4,5-b]indole-1-carboxamide]"
30 to 80,> 20,"CCN(C(=O)c1nn(-c2ccc(C)cc2)c(=O)c2c1c1cccc(OC)c1n2C)c1ccccc1 [Example 189, N-ethyl-6-methoxy-5-methyl-4-oxo-N-phenyl-3-(p-tolyl)-4,5-dihydro-3H-pyridazino[4,5-b]indole-1-carboxamide]"
30 to 80,< 10,"CC(C)N(C(=O)c1nn(-c2ccccc2)c(=O)c2c1c1ccccc1n2C)c1ccc(Cl)cc1 [Example 190, N-(4-chlorophenyl)-N-isopropyl-5-methyl-4-oxo-3-phenyl-4,5-dihydro-3H-pyridazino[4,5-b]indole-1-carboxamide]"
30 to 80,> 20,"CC(C)N(C(=O)c1nn(-c2cnc3ccccc3c2)c(=O)c2c1c1ccccc1n2C)c1ccccc1 [Example 191, N-isopropyl-5-methyl-4-oxo-N-phenyl-3-(quinolin-3-yl)-4,5-dihydro-3H-pyridazino[4,5-b]indole-1-carboxamide]"
30 to 80,< 10,"CCN(C(=O)c1nn(-c2ccc(OC)c(Cl)c2)c(=O)c2c1c1ccccc1n2C)c1ccccn1 [Example 192, 3-(3-chloro-4-methoxyphenyl)-N-ethyl-5-methyl-4-oxo-N-(pyridin-2-yl)-4,5-dihydro-3H-pyridazino[4,5-b]indole-1-carboxamide]"
30 to 80,< 10,"CCN(C(=O)c1nn(-c2ccc(C(F)(F)F)cn2)c(=O)c2c1c1ccccc1n2C)c1ccccc1 [Example 193, N-ethyl-5-methyl-4-oxo-N-phenyl-3-(5-(trifluoromethyl)pyridin-2-yl)-4,5-dihydro-3H-pyridazino[4,5-b]indole-1-carboxamide]"
30 to 80,> 20,"CCN(C(=O)c1nn(-c2ccc(C(F)(F)F)cc2)c(=O)c2c1c1ccccc1n2C)c1ccccc1 [Example 194, N-ethyl-5-methyl-4-oxo-N-phenyl-3-(4-(trifluoromethyl)phenyl)-4,5-dihydro-3H-pyridazino[4,5-b]indole-1-carboxamide]"
30 to 80,< 10,"CCN(C(=O)c1nn(-c2ccc(C)cc2)c(=O)c2c1c1c(OC)cccc1n2C)c1ccccc1 [Example 195, N-ethyl-9-methoxy-5-methyl-4-oxo-N-phenyl-3-(p-tolyl)-4,5-dihydro-3H-pyridazino[4,5-b]indole-1-carboxamide]"
